Test results as given in patent US10919764B2, “Multi-chamber hypochlorous acid dispenser” (WIAB WATER […], priority 2016, dated 2021).

Tested on: spores
Conditions: acid used for protonization of HOCl
Excerpt: In addition to buffering the product during storage and after application, acetic acid also has the advantage of improving the sporicidal effect by 40% compared to other acids used for protonization of HOCl.

SMILES: CC(=O)O [acetic acid]
- improvement of the sporicidal effect compared to other acids used for protonization of HOCl: 40%
